Type in all cases: biochemical
The target of assay [1] is T1, Human Topoisomerase I (Homo sapiens, UniProt P11387).
T1 construct: purchased Inspiralis, UK
T1 sequence (P11387 1-765): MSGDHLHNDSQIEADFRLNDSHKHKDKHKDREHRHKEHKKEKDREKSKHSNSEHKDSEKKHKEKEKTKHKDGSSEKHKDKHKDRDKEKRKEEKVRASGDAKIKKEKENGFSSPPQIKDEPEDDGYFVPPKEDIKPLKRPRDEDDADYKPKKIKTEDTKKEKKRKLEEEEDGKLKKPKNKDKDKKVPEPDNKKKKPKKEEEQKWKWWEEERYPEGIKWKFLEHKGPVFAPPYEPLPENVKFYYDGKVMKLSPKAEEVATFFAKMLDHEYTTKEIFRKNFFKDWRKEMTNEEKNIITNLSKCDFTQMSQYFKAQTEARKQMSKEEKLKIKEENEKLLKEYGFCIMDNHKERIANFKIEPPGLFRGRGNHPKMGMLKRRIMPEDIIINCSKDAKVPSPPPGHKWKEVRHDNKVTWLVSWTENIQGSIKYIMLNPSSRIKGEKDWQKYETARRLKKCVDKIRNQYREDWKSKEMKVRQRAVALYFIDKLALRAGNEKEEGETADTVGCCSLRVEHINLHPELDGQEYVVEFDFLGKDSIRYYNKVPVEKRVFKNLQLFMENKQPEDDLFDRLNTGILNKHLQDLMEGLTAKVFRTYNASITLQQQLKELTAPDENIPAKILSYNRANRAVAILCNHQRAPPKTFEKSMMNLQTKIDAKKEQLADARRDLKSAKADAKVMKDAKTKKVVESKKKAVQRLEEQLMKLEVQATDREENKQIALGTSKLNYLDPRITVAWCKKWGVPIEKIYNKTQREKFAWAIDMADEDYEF
Nature of the assay: Human Topoisomerase I DNA relaxation assay. The protocol: All values were normalized to the negative control wells. […] All experiments were performed in triplicate (n = 3).

Assay [2] deals with T2, E. coli gyrase (Escherichia coli, UniProt P0AES4+P0AES6).
T2 construct: purchased TopoGen, USA
Nature of the assay: DNA gyrase supercoiling assay. The procedure:
The DNA gyrase supercoiling assay was conducted with an E. coli gyrase supercoiling kit (TopoGen, USA) in this assay. Ciprofloxacin (Sigma, USA) was used as the positive control. Assay was performed according to the manufacture’s protocol. […] The final volume of the reaction was adjusted to 19 µL with H2O. Finally, 1 µL of fresh diluted E. coli gyrase (1U) was added into the reaction mixture and incubated at 37 °C for 60 min. The reaction was terminated by addition of 2 µL of 10% SDS and 2 µL of 50 µg/mL proteinase K followed by a 30 min at 37 °C. The reaction was then extracted with 20 µL of chloroform/isoamyl alcohol (v:v, 24:1). The aqueous material loaded a on 1% (w/v) agarose gel and separated at 140 v for 1 hour in 0.5% TBE buffer. The gel was visualized using ethidium bromide staining. The intensity of SC plasmid bands was quantified using Analytik Jena image software. The intensity of SC bands was used in the determination of IC50 of tested compounds and the curve were drawn in Prism 9 (9.0.0). The assay was performed in triplicate (n = 3).

The target in assay [3] is T1, Human Topoisomerase I. Briefly: Topoisomerase I DNA cleavage assay. The following applies: supercoil pBR322, 30 min, 37 °C; nick DNA; two independent times. The procedure:
Topoisomerase I/II cleavage assay: A commercial Human topoisomerase cleavage assay kit (Inspiralis, UK) was used in this study with a slight modification. Camptothecin (Sigma, USA) and Etoposide (Sigma, USA) were used as the positive control for topoisomerase I cleavage assay and topoisomerase II cleavage assay, respectively. The assay was performed according to the manufacture’s protocol. Briefly, 29 µL of the master mixture was prepared by adding 3 µL of 10 x assay buffer, 1 µL of 1 µg/µL supercoil pBR322, 1 µL of 30 mM ATP (only used in topoisomerase II cleavage assay), 1.5 µL serial diluted compounds (dissolved in DMSO) and H2O. Finally, 1 µL of 10 U/µL human topoisomerase I/II alpha was added to the reaction mixture. The reaction was incubated for 30 minutes at 37℃. After incubation, 3 µL of 2% (w/v) SDS and 1.5 µL of 10 mg/mL proteinase K was added. The reaction was mixed briefly and incubated for another 30 minutes at 37 ℃. The reaction was stopped by added 10 µL of H2O, 40 µL of STEB stop buffer and 40 µL of Chloroform/isoamyl alcohol (v:v, 24:1). The mixture was vortexed vigorously for 10 secs and centrifuged for 2 minutes. 20 µL of aqueous phase was loaded onto 1% (w/v) agarose gel and separated at 80 V for 2 hours in 0.5% TBE buffer. […]

In assay [4] the test system is Wheat germ Topoisomerase I. Nature of the assay: DNA intercalator assay / enzyme concentration dependence, Topo I. The following applies: unlike known DNA intercalators; supercoil pBR322, 30 min, 37 °C; two independent times. The source says: DNA intercalator assay: A commercial DNA unwinding assay kit (Inspiralis, UK) was used in this study with a slight modification. Ethidium bromide was used as intercalator positive control. The assay contains two steps: the first step is used to determine the minimum concentration of compounds that will inhibit the enzyme activity; the second step is used to determine whether compounds act as intercalator or inhibitor. Ethidium bromide was used as the intercalator positive control and supercoil pBR322 was used as the substrate. The assay mixture was set up on the ice. Briefly, the master mixture was prepared by adding 3 µL of […] wheat germ topoisomerase I assay buffer, 0.5 µL of 1 µg/µL supercoil pBR322, 1.5 uL serial diluted compounds (dissolved in DMSO). H2O was added to a final volume of 29 µL. Finally, 1 µL of 2 U/µL Wheat germ Topoisomerase I was added to the reaction mixture. The reaction was incubated for 30 minutes at 37℃. The reaction was stopped by added 20 µL of H2O, and 50 µL of butanol (water-saturated). The mixture was vortexed vigorously and centrifuged for 1 minute. The lower, aqueous layer was removed and added into a new tubes containing 50 µL STEB buffer and 40 µL of Chloroform/isoamyl alcohol (v:v, 24:1). The mixture was vortexed vigorously for 10 secs and centrifuge for 2 minutes. […]

T2 sequence (P0AES4 whole entry, one chain of several): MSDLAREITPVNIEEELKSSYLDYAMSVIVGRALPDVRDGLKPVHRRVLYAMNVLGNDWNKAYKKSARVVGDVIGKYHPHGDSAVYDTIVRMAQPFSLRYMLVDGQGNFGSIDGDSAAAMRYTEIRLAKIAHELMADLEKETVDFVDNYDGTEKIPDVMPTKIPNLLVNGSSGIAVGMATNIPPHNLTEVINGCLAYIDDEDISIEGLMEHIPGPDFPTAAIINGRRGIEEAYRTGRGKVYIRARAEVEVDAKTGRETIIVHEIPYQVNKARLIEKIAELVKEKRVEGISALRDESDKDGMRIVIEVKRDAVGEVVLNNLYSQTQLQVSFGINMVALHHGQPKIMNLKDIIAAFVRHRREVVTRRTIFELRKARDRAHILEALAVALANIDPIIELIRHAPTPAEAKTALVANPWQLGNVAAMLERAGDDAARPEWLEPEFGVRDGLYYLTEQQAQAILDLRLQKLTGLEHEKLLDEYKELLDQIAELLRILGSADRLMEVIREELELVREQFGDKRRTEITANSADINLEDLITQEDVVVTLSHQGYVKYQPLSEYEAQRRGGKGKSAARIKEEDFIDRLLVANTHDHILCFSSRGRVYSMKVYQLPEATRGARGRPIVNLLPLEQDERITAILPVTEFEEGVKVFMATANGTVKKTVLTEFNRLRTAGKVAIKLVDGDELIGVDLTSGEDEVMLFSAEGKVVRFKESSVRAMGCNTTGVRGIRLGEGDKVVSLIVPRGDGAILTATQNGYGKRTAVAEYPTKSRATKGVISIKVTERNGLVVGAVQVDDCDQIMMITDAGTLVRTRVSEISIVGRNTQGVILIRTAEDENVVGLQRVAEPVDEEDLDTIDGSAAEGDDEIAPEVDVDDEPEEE

`CCCCCCCCCCCC(O)CC(=O)N[C@@H](C)C(=O)N[C@@H](CO)C(=O)N[C@@H](C)C(=O)Nc1ccc(-c2nc(-c3nc(C(=O)N[C@@H](CC(N)=O)C(=O)Nc4ccc(C(=O)Nc5ccc(C(=O)Nc6ccc(C(=O)O)cc6)c(O)c5OC(C)C)cc4)cs3)cs2)cc1` (stereo partly drawn) [Lapcin, 4-(4-(4-((2S)-4-amino-2-(2'-(4-((2S)-2-((2S)-3-hydroxy-2-((2S)-2-(3-hydroxytetradecanamido)propanamido)propanamido)propanamido)phenyl)-[2,4'-bithiazole]-4-carboxamido)-4-oxobutanamido)benzamido)-2-hydroxy-3-isopropoxybenzamido)benzoic acid]: the “fold more potent than camptothecin, topoisomerase I” value in assay [1] was 14 times. Besides, the IC50 (as a rule, the midpoint of a concentration-inhibition curve) was 2170 nM in assay [1] (supercoiled pBR322, 30 min, 37 °C, gel, ethidium bromide, n = 3) and above 20500 nM in assay [2]. The “accumulation of cleavage product, Topo I” value in assay [3] was “did not observe the accumulation of a cleavage product”. Moreover, the “dependence of activity on enzyme concentration, Topo I” value in assay [4] is listed as “strong dependence on enzyme concentration”.

Values taken from publication PMC8837603, “Lapcin, a potent dual topoisomerase I/II inhibitor discovered by soil metagenome guided total chemical synthesis” (Nature Communications, 2022).
